Assay results: US20150284394A1, “INHIBITORS OF BRUTON'S TYROSINE KINASE” (HOFFMANN-LA ROCHE INC., priority 2012, published 2015)

What was measured:
B cells in human blood = test: Inhibition of B cell activation in whole blood measured by CD69 expression; type: cell-based; details: anti-IgM stimulation, 20 hours, CD69-positive cells that are also CD20-positive, read-out: HWB IC50
Procedure: A procedure to test the ability of Btk inhibitors to suppress B cell receptor-mediated activation of B cells in human blood is as follows:
Human whole blood (HWB) is obtained from healthy volunteers, with the following restrictions: 24 hr drug-free, non-smokers. Blood is collected by venipuncture into Vacutainer tubes anticoagulated with sodium heparin. Test compounds are diluted to ten times the desired starting drug concentration in PBS (20×), followed by three-fold serial dilutions in 10% DMSO in PBS to produce a nine point dose-response curve. 5.5 μl of each compound dilution is added in duplicate to a 2 ml 96-well V bottom plate (Analytical Sales and Services, #59623-23); 5.5 μl of 10% DMSO in PBS is added to control and no-stimulus wells. HWB (100 μl) is added to each well, and after mixing the plates are incubated at 37 C, 5% CO2, 100% humidity for 30 minutes. Goat F(ab′)2 anti-human IgM (Southern Biotech, #2022-14) (10 μl of a 500 μg/ml solution, 50 μg/ml final concentration) is added to each well (except the no-stimulus wells) with mixing and the plates are incubated for an additional 20 hours.
At the end of the 20 hour incubation, samples are incubated with florescent-probe-labeled anti-bodies (15 μl PE Mouse anti-Human CD20, BD Pharmingen, #555623, and/or 20 ul APC Mouse anti-Human CD69, BD Pharmingen #555533) for 30 minutes, at 37 C, 5% CO2, 100% humidity. Included are induced control, unstained and single stains for compensation adjustments and initial voltage settings. Samples are then lysed with 1 ml of 1× Pharmingen Lyse Buffer (BD Pharmingen #555899), and plates are centrifuged at 1800 rpm for 5 minutes. Supernatants are removed via suction and the remaining pellets are lysed again with another 1 ml of 1× Pharmingen Lyse Buffer, and plates are spun down as before. Supernatants are aspirated and remaining pellets are washed in FACs buffer (PBS+1% FBS). After a final spin, the supernantants are removed and pellets are resuspended in 180 μl of FACs buffer. Samples are transferred to a 96 well plate suitable to be run on the HTS 96 well system on the BD LSR II flow cytometer.
Using appropriate excitation and emission wavelengths for the fluorophores used, data are acquired and percent positive cell values are obtained using Cell Quest Software. Results are initially analyzed by FACS analysis software (Flow Jo). […] The IC50 values are calculated using XLfit software version 3, equation 201.

Bruton's Tyrosine Kinase = Bruton's Tyrosine Kinase (Homo sapiens, UniProt Q06187); test: Bruton's Tyrosine Kinase (BTK) Inhibition TR-FRET competition assay; type: binding; details: inactivated state of BTK; Kinase Tracer 178; 18-24 h at 14° C
Procedure: This BTK competition assay measures compound potency (IC50) for the inactivated state of Bruton's Tyrosine Kinase using FRET (Forster/Fluorescence Resonance Energy Transfer) technology. The BTK-Eu complex was incubated on ice one hour prior to use at a starting concentration of 50 nM BTK-Bioease™: 10 nM Eu-streptavidin (Perkin-Elmer Catalog# AD0062). The assay buffer consisted of 20 mM HEPES (pH 7.15), 0.1 mM DTT, 10 mM MgCl2, 0.5 mg/ml BSA with 3% Kinase Stabilizer (Fremont Biosolutions, Catalog # STB-K02). After 1 h, the reaction mixture from above was diluted 10 fold in assay buffer to make 5 nM BTK: 1 nM Eu-Streptavidin complex (donor fluorophore). […] of a mixture of 0.11 nM BTK-Eu and 0.11 nM Kinase Tracer 178 (Invitrogen, Catalog # PV5593,) with BTK-Eu alone as no negative control, was then dispensed into 384-well flat bottom plates (Greiner, 784076). Compounds to be tested in assay were prepared as 10× concentrations and serial dilution in half-log increments was performed in DMSO so as to generate 10 point curves. To initiate the FRET reaction, compounds prepared as 10× stock in DMSO was added to the plates and the plates were incubated 18-24 h at 14° C.
After the incubation the plates were read on a BMG Pherastar Fluorescent plate reader (or equivalent) and used to measure the emission energy from the europium donor fluorophore (620 nm emission) and the FRET (665 nm emission). The negative control well values were averaged to obtain the mean minimum. The positive “no inhibitor” control wells were averaged to obtain the mean maximum. Percent of maximal FRET was calculated using following equation:
% max FRET=100×[(FSRcmpd−FSRmean min)/(FSRmean max−FSRmean min)]
where FSR=FRET Signal ratio. % Max FRET curves were plotted in Activity Base (Excel) and the IC50(%), hill slope, z′ and % CV were determined. The mean IC50 and standard deviation will be derived from duplicate curves (singlet inhibition curves from two independent dilutions) using Microsoft Excel.

Bruton's Tyrosine Kinase, sequence (Q06187 whole entry): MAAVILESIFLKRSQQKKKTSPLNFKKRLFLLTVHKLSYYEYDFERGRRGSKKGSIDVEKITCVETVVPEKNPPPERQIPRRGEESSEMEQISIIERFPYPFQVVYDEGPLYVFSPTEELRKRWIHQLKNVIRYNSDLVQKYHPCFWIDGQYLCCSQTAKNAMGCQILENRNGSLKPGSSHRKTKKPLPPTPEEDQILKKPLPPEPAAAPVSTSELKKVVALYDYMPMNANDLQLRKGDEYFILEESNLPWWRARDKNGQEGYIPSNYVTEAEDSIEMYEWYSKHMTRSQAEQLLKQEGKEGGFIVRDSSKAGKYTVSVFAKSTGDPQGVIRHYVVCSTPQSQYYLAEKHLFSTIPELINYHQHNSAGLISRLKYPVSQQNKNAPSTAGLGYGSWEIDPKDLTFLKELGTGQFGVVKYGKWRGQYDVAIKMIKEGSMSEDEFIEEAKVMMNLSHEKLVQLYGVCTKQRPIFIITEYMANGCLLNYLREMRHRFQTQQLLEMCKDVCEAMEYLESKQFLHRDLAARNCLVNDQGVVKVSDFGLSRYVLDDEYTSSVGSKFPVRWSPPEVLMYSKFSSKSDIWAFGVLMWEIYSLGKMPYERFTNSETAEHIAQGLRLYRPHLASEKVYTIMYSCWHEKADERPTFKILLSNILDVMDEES

IC50 (B cells in human blood) [µM]	IC50 (Bruton's Tyrosine Kinase) [µM]	SMILES
0.674	0.0032	Cn1cc(-c2cc3c(-c4ccc(CNC(=O)c5cc6n(n5)CCCC6)c(F)c4)ncnc3[nH]2)cn1 [Compound I-47, N-(2-fluoro-4-(6-(1-methyl-1H-pyrazol-4-yl)-7H-pyrrolo[2,3-d]pyrimidin-4-yl)benzyl)-4,5,6,7-tetrahydropyrazolo[1,5-a]pyridine-2-carboxamide]
0.23	0.0005	CN(C)CCn1cc(-c2cc3c(-c4ccc(CNC(=O)c5ccc(C(C)(C)C)cc5)c(F)c4)ncnc3[nH]2)cn1 [Compound I-42, 4-tert-Butyl-N-(4-{6-[1-(2-dimethylamino-ethyl)-1H-pyrazol-4-yl]-7H-pyrrolo[2,3-d]pyrimidin-4-yl}-2-fluoro-benzyl)-benzamide]
0.129	0.001	Cn1cc(-c2cc3c(-c4ccc(CN5Cc6cc(C(C)(C)C)sc6C5=O)c(F)c4)ncnc3[nH]2)cn1 [Compound I-33, 2-tert-Butyl-5-{2-fluoro-4-[6-(1-methyl-1H-pyrazol-4-yl)-7H-pyrrolo[2,3-d]pyrimidin-4-yl]-benzyl}-4,5-dihydro-thieno[2,3-c]pyrrol-6-one]
0.002	0.00011	Cn1cc(-c2cc3c(-c4ccc(CNC(=O)c5nc(C(C)(C)C)no5)c(F)c4)ncnc3[nH]2)cn1 [Compound I-49, 3-tert-Butyl-[1,2,4]oxadiazole-5-carboxylic acid 2-fluoro-4-[6-(1-methyl-1H-pyrazol-4-yl)-7H-pyrrolo[2,3-d]pyrimidin-4-yl]-benzylamide]
3.27	0.003	Cn1cc(-c2cc3c(-c4ccc(CNC(=O)c5ccc(C(C)(C)O)cc5)c(F)c4)ncnc3[nH]2)cn1 [Compound I-38, N-{2-Fluoro-4-[6-(1-methyl-1H-pyrazol-4-yl)-7H-pyrrolo[2,3-d]pyrimidin-4-yl]-benzyl}-4-(1-hydroxy-1-methyl-ethyl)-benzamide]
0.154	0.0006	Cn1cc(-c2cc3c(-c4ccc(CNC(=O)N5Cc6ccccc6C5)c(F)c4)ncnc3[nH]2)cn1 [Compound I-41, 1,3-Dihydro-isoindole-2-carboxylic acid 2-fluoro-4-[6-(1-methyl-1H-pyrazol-4-yl)-7H-pyrrolo[2,3-d]pyrimidin-4-yl]-benzylamide]
6.74	0.004	Cn1cc(-c2cc3c(-c4ccc(CNC(=O)c5ccc(C(C)(C)C#N)cc5)c(F)c4)ncnc3[nH]2)cn1 [Compound I-36, 4-(Cyano-dimethyl-methyl)-N-{2-fluoro-4-[6-(1-methyl-1H-pyrazol-4-yl)-7H-pyrrolo[2,3-d]pyrimidin-4-yl]-benzyl}-benzamide]
0.655	0.0003	Cn1cc(-c2cc3c(-c4ccc(CNC(=O)c5cc6c(s5)CCCC6)c(F)c4)ncnc3[nH]2)cn1 [Compound I-37, 4,5,6,7-Tetrahydro-benzo[b]thiophene-2-carboxylic acid 2-fluoro-4-[6-(1-methyl-1H-pyrazol-4-yl)-7H-pyrrolo[2,3-d]pyrimidin-4-yl]-benzylamide]
0.028	0.0002	Cn1cc(-c2cc3c(-c4ccc(CNC(=O)c5cc(C(C)(C)C)no5)c(F)c4)ncnc3[nH]2)cn1 [Compound I-39, 3-tert-Butyl-isoxazole-5-carboxylic acid 2-fluoro-4-[6-(1-methyl-1H-pyrazol-4-yl)-7H-pyrrolo[2,3-d]pyrimidin-4-yl]-benzyl amide]
	0.008	Cc1ccc(C(=O)N(C)Cc2ccc(-c3ncnc4[nH]c(-c5cnn(C)c5)cc34)cc2F)s1 [Compound I-32, 5-Methyl-thiophene-2-carboxylic acid {2-fluoro-4-[6-(1-methyl-1H-pyrazol-4-yl)-7H-pyrrolo[2,3-d]pyrimidin-4-yl]-benzyl}-methyl-amide]

The next lines start with the compound.

SMILES	IC50 (B cells in human blood) [µM]	IC50 (Bruton's Tyrosine Kinase) [µM]
Cn1cc(-c2cc3c(-c4ccc(CNC(=O)c5ccc(C6(C)COC6)cc5)cc4)ncnc3[nH]2)cn1 [Compound I-25, 4-(3-Methyl-oxetan-3-yl)-N-{4-[6-(1-methyl-1H-pyrazol-4-yl)-7H-pyrrolo[2,3-d]pyrimidin-4-yl]-benzyl}-benzamide]	28.9	0.044
Cn1cc(-c2cc3c(-c4ccc(CNC(=O)c5ccc(C6CC6)cc5)cc4)ncnc3[nH]2)cn1 [Compound I-22, 4-Cyclopropyl-N-{4-[6-(1-methyl-1H-pyrazol-4-yl)-7H-pyrrolo[2,3-d]pyrimidin-4-yl]-benzyl}-benzamide]	5.48	0.008
CC(C)c1ccc(C(=O)NCc2ccc(-c3ncnc4[nH]c(-c5cnn(C)c5)cc34)cc2)cc1 [Compound I-23, 4-Isopropyl-N-{4-[6-(1-methyl-1H-pyrazol-4-yl)-7H-pyrrolo[2,3-d]pyrimidin-4-yl]-benzyl}-benzamide]	1.4	0.007
CC(C)(C)c1ccc(C(=O)NCc2ccc(-c3ncnc4[nH]c(-c5cnn(CCO)c5)cc34)cc2F)cc1 [Compound I-30, 4-tert-Butyl-N-(2-fluoro-4-{6-[1-(2-hydroxy-ethyl)-1H-pyrazol-4-yl]-7H-pyrrolo[2,3-d]pyrimidin-4-yl}-benzyl)-benzamide]	1.04	0.0007
Cn1cc(-c2cc3c(N4CCC(CNC(=O)c5ccc(C(C)(C)C)cc5)CC4)ncnc3[nH]2)cn1 [Compound I-20, 4-tert-Butyl-N-{1-[6-(1-methyl-1H-pyrazol-4-yl)-7H-pyrrolo[2,3-d]pyrimidin-4-yl]-piperidin-4-ylmethyl}-benzamide]	3	0.062
Cc1ccc(-c2ncnc3[nH]ccc23)cc1F [Compound I-4, 4-(3-Fluoro-4-methyl-phenyl)-7H-pyrrolo[2,3-d]pyrimidine]		16.3
CC(C)(C)OC(=O)c1cc2c(-c3ccc(CNC(=O)c4ccc(C(C)(C)C)cc4)c(F)c3)ncnc2[nH]1 [Compound I-13, 4-{4-[(4-tert-Butyl-benzoylamino)-methyl]-3-fluoro-phenyl}-7H-pyrrolo[2,3-d]pyrimidine-6-carboxylic acid tert-butyl ester]		> 100
O=C(CNc1cccc(Cl)c1)NCc1ccc(-c2ncnc3[nH]ccc23)cc1 [Compound I-11, 2-(3-Chloro-phenylamino)-N-[4-(7H-pyrrolo[2,3-d]pyrimidin-4-yl)-benzyl]-acetamide]		12.2
Clc1ccccc1-c1ncnc2[nH]ccc12 [Compound I-3, 4-(2-Chloro-phenyl)-7H-pyrrolo[2,3-d]pyrimidine]		> 100
Cc1ccc(-c2ncnc3[nH]ccc23)c(C)c1 [Compound I-5, 4-(2,4-Dimethyl-phenyl)-7H-pyrrolo[2,3-d]pyrimidine]		33.1
Cc1ccc(-c2ncnc3[nH]ccc23)cc1 [Compound I-7, 4-p-Tolyl-7H-pyrrolo[2,3-d]pyrimidine]		16.4
CC(C)(C)c1ccc(C(=O)NCc2ccc(-c3ncnc4[nH]ccc34)cc2F)cc1 [Compound I-12, 4-tert-Butyl-N-[2-fluoro-4-(7H-pyrrolo[2,3-d]pyrimidin-4-yl)-benzyl]-benzamide]		0.121
